Measured values from US11339144B2 (Navitor Pharmaceuticals, Inc., priority 2017, dated 2022).

Columns and labels:
Rheb = Rheb (Homo sapiens (Human), UniProt Q15382); experiment: Affinity Selection Mass Spectrometry (ASMS); format: binding; conditions: affinity (R3/R0) in Affinity Selection Mass Spectrometry assay
How it was run: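 Human Rheb (60 μM) with GDP (180 μM) and each compound at 2 μM, protein-plus versus protein-minus, incubated 30 min at room temperature, then washed by 10 kDa ultrafiltration. Retained ligand was released with MeCN and detected by UPLC-Q-TOF MS.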

[1] = target: HA-GST-Rheb (GTP-γ-S loaded) activating mTORC1 (Homo sapiens (Human), UniProt Q15382); experiment: Rheb-dependent in vitro kinase assay (Rheb-IVK; LanthaScreen or Western readout); format: biochemical; conditions: Rheb-dependent in vitro kinase assay; read-out: IVK IC50
HA-GST-Rheb (GTP-γ-S loaded) activating mTORC1, sequence (Q15382 1-181): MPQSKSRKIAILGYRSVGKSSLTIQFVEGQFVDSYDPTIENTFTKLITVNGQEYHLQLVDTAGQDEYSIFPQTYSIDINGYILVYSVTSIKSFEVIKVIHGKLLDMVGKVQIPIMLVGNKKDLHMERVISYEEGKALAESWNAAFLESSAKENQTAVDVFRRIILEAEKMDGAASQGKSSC

Rheb, sequence (Q15382 1-169 limits assumed): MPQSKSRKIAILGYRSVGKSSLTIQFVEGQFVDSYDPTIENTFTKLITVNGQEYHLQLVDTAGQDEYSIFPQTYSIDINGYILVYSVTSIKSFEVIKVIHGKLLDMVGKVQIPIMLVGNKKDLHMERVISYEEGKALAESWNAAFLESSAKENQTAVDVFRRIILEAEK

Row | SMILES | ASMS (R3/R0) (Rheb) | IC50 [1] [µM]
1 | CC(C)(C)OC(=O)c1ccc(Cn2c(CO)cc3c(Br)cc(Oc4ccccc4)cc32)cc1 [I-151] | C (an affinity (R3/R0)<20%) | > 100
2 | OCc1nc2cc(OCc3ccc(Cl)cc3)c(Cl)cc2[nH]1 [I-486, (6-chloro-5-(4-chlorobenzyloxy)-1H-benzo[d]imidazol-2-yl)methanol] | A (an affinity (R3/R0)>100%) | > 100
3 | O=C(O)c1cc2c(Sc3ccc(F)c(F)c3)cc(Cl)cc2[nH]1 [I-155, 6-chloro-4-(3,4-difluorophenylthio)-1H-indole-2-carboxylic acid] | B (an affinity (R3/R0) between 100% and 20%) | 10 to 100
4 | O=C(O)c1cc2c(Sc3ccc(Cl)cc3Cl)cc(Cl)cc2n1Cc1ccc(-c2cccc(CO)c2)cc1 [I-72, 6-chloro-4-(2,4-dichlorophenylthio)-1-((3′-(hydroxymethyl)biphenyl-4-yl)methyl)-1H-indole-2-carboxylic acid] | B (an affinity (R3/R0) between 100% and 20%) | < 10
5 | O=C1CCC(CNC(=O)c2cc3c(Sc4ccc(Cl)cc4)cc(Cl)cc3[nH]2)N1 (stereo not shown) [I-147] | A (an affinity (R3/R0)>100%) | > 100
6 | Clc1ccc(Oc2cccc3[nH]ccc23)c(Cl)c1 [I-255, 4-(2,4-Dichlorophenoxy)-1H-indole] | B (an affinity (R3/R0) between 100% and 20%) | 10 to 100
7 | NC(=O)C1CCCN(C(=O)c2cc3c(Sc4ccc(Cl)cc4)cc(Cl)cc3[nH]2)C1 (stereo not shown) [I-132] | B (an affinity (R3/R0) between 100% and 20%) | > 100
8 | O=C(O)c1cc2c(SCc3ccc(Cl)cc3)cc(SCc3ccc(Cl)cc3)cc2[nH]1 [I-94, 4,6-bis(4-chlorobenzylthio)-1H-indole-2-carboxylic acid] | B (an affinity (R3/R0) between 100% and 20%) | < 10
9 | O=C(O)c1ccc(CCn2c(-c3ccnc4[nH]ccc34)nc3cc(Cl)c(Cl)cc32)cc1 [I-331, 4-(2-(5,6-dichloro-2-(1H-pyrrolo[2,3-b]pyridin-4-yl)-1H-benzo[d]imidazol-1-yl)ethyl)benzoic acid] | B (an affinity (R3/R0) between 100% and 20%) | 10 to 100
10 | CN1CCN(C(=O)c2ccc(-c3nc4cc(Cl)c(Cl)cc4[nH]3)cc2)CC1 [I-349] | B (an affinity (R3/R0) between 100% and 20%) | > 100
11 | O=C(O)c1ccc(-c2nc3cc(Cl)c(Cl)cc3[nH]2)cc1 [I-364, 4-(5,6-dichloro-1H-benzo[d]imidazol-2-yl)benzoic acid] | B (an affinity (R3/R0) between 100% and 20%) | 100 to 300
12 | O=C(O)c1cc2c(Sc3ccc(Cl)cc3)cc(Cl)cc2[nH]1 [I-190, 6-chloro-4-(4-chlorophenylthio)-1H-indole-2-carboxylic acid] | B (an affinity (R3/R0) between 100% and 20%) | 10 to 100
13 | COC(=O)c1ccc(-c2nc3cc(Cl)c(Cl)cc3[nH]2)cc1 [I-363, methyl 4-(5,6-dichloro-1H-benzo[d]imidazol-2-yl)benzoate] | A (an affinity (R3/R0)>100%) | 10 to 100
14 | O=C(NCCN1CCCC1)c1cc2c(Sc3ccc(Cl)cc3)cc(Cl)cc2[nH]1 [I-148, 6-chloro-4-(4-chlorophenylthio)-N-(2-(pyrrolidin-1-yl)ethyl)-1H-indole-2-carboxamide] | B (an affinity (R3/R0) between 100% and 20%) | 10 to 100
15 | Cc1nc2c(OCc3ccc(Cl)cc3)c(Cl)c(Cl)cc2[nH]1 [I-340] | B (an affinity (R3/R0) between 100% and 20%) | > 100
16 | O=C(O)c1cc2c(Br)cc(Oc3ccccc3)cc2n1Cc1ccc(C(=O)N(CCO)CCO)cc1 [I-67, 1-(4-(bis(2-hydroxyethyl)carbamoyl)benzyl)-4-bromo-6-phenoxy-1H-indole-2-carboxylic acid] | C (an affinity (R3/R0)<20%) | 10 to 100
17 | CC(C)(C)OC(=O)c1ccc(Cn2c(C(=O)O)cc3c(Br)cc(Sc4ccc(Cl)c(Cl)c4)cc32)cc1 [I-109, 4-Bromo-1-(4-(tert-butoxycarbonyl)benzyl)-6-(3,4-dichlorophenylthio)-1H-indole-2-carboxylic acid] | B (an affinity (R3/R0) between 100% and 20%) | 10 to 100
18 | O=C1CCc2ccc(Oc3cc(Cl)cc4[nH]c(CO)cc34)cc2N1 [I-59] | C (an affinity (R3/R0)<20%) | > 100

Row | SMILES | ASMS (R3/R0) (Rheb) | IC50 [1] [µM]
19 | OCc1cc2ccc(Sc3ccc(Cl)cc3)cc2n1Cc1nc[nH]n1 [I-185] | C (an affinity (R3/R0)<20%) | > 100
20 | O=C(O)c1nc2c(OCC3CCCCC3)c(Cl)c(Cl)cc2[nH]1 [I-342, 5,6-dichloro-4-(cyclohexylmethoxy)-1H-benzo[d]imidazole-2-carboxylic acid] | B (an affinity (R3/R0) between 100% and 20%) | 10 to 100
21 | Nc1ccc(N2CCN(C(=O)c3cc4c(Sc5ccc(Cl)cc5Cl)cc(Cl)cc4[nH]3)CC2)cc1F [I-92, (4-(4-amino-3-fluorophenyl)piperazin-1-yl)(6-chloro-4-(2,4-dichlorophenylthio)-1H-indol-2-yl)methanone] | B (an affinity (R3/R0) between 100% and 20%) | 10 to 100
22 | OCc1nc2c(OC[C@H]3CNCC[C@H]3O)c(Cl)c(Cl)cc2[nH]1 (racemic) [I-386] | C (an affinity (R3/R0)<20%) | > 100
23 | OCc1nc2c(OC[C@H]3CNCC[C@@H]3O)c(Cl)c(Cl)cc2[nH]1 (racemic) [I-385] | C (an affinity (R3/R0)<20%) | > 100
24 | CC(C)(C)OC(=O)N1CCN(C(=O)c2ccc(Cn3c(C(=O)O)cc4c(Br)cc(Sc5ccc(Cl)c(Cl)c5)cc43)cc2)CC1 [I-44] | B (an affinity (R3/R0) between 100% and 20%) | > 100
25 | CN1CCC[C@@H]1CNC(=O)c1cc2c(Br)cc(Sc3ccc(Cl)c(Cl)c3)cc2[nH]1 [I-57] | A (an affinity (R3/R0)>100%) | > 100
26 | Nc1ccc(-c2nc3cc(Cl)c(Cl)cc3[nH]2)cc1 [I-360] | B (an affinity (R3/R0) between 100% and 20%) | > 100
27 | O=C(O)c1ccc(Cn2c(-c3ccncc3)nc3cc(Cl)c(Cl)cc32)cc1 [I-365, 4-((5,6-dichloro-2-(pyridin-4-yl)-1H-benzo[d]imidazol-1-yl)methyl)benzoic acid] | C (an affinity (R3/R0)<20%) | 10 to 100
28 | OCc1nc2c(OCC3CC=CC3)c(Cl)c(Cl)cc2[nH]1 [I-377] | B (an affinity (R3/R0) between 100% and 20%) | > 100
29 | CC(=O)c1cc2c(Oc3ccccc3)cc(Cl)cc2[nH]1 [I-150] | C (an affinity (R3/R0)<20%) | > 100
30 | CN(C)C(=O)c1ccc(Cn2c(C(=O)O)cc3c(Br)cc(Sc4ccc(Oc5ccccc5)cc4)cc32)cc1 [I-15, 4-bromo-1-(4-(dimethylcarbamoyl)benzyl)-6-(4-phenoxyphenyl-thio)-1H-indole-2-carboxylic acid] | B (an affinity (R3/R0) between 100% and 20%) | < 10
31 | CN(C)Cc1cc2c(Br)cc(Sc3ccc(Cl)c(Cl)c3)cc2n1Cc1ccc(C(=O)N(C)C)cc1 [I-39] | B (an affinity (R3/R0) between 100% and 20%) | > 100
32 | Clc1ccc(Oc2cccc3[nH]ccc23)cc1 [I-283, 4-(4-chlorophenoxy)-1H-indole] | C (an affinity (R3/R0)<20%) | 100 to 300
33 | Cn1c(CO)cc2c(Oc3cccc(Cl)c3)cccc21 [I-271] | C (an affinity (R3/R0)<20%) | > 3
34 | OCc1cc2c(Oc3ccccc3)cc(Cl)cc2[nH]1 [I-291, (6-Chloro-4-phenoxy-1H-indol-2-yl)methanol] | C (an affinity (R3/R0)<20%) | 10 to 100
35 | OCc1nc2c(OCC3CCCC3O)c(Cl)c(Cl)cc2[nH]1 (stereo not shown) [I-379, 2-((5,6-dichloro-2-(hydroxymethyl)-1H-benzo[d]imidazol-4-yloxy)methyl)cyclopentanol] | C (an affinity (R3/R0)<20%) | > 100

Second part, the compound after the results:

Row | ASMS (R3/R0) (Rheb) | IC50 [1] [µM] | SMILES
36 | A (an affinity (R3/R0)>100%) | < 10 | CN1CCCN(c2ccc(NC(=O)c3cc4c(Sc5ccc(Cl)cc5Cl)cc(Cl)c(Cl)c4[nH]3)cc2F)CC1 [I-32, 6,7-dichloro-4-(2,4-dichlorophenyl)sulfanyl-N-[3-fluoro-4-(4-methyl-1,4-diazepan-1-yl)phenyl]-1H-indole-2-carboxamide]
37 | C (an affinity (R3/R0)<20%) | 10 to 100 | CC(C)(O)CNC(=O)c1ccc(Cn2c(C(=O)O)cc3c(Br)cc(Oc4ccccc4)cc32)cc1 [I-55, 4-bromo-1-(4-(2-hydroxy-2-methylpropylcarbamoyl)benzyl)-6-phenoxy-1H-indole-2-carboxylic acid]
38 | C (an affinity (R3/R0)<20%) | 10 to 100 | CN(C)C(=O)c1cccc(Cn2c(C(=O)O)cc3c(Br)cc(Oc4ccccc4)cc32)c1 [I-40, 4-bromo-1-(3-(dimethylcarbamoyl)benzyl)-6-phenoxy-1H-indole-2-carboxylic acid]
39 | C (an affinity (R3/R0)<20%) | 10 to 100 | OCc1nc2c(OCC3CCCC(O)C3)c(Cl)c(Cl)cc2[nH]1 (stereo not shown) [I-396, 3-((5,6-dichloro-2-(hydroxymethyl)-1H-benzo[d]imidazol-4-yloxy)methyl)cyclohexanol]
40 | A (an affinity (R3/R0)>100%) | < 10 | Clc1ccc(Sc2cccc3c2ccn3Cc2ccc(-c3nnn[nH]3)cc2)c(Cl)c1 [I-161, 1-(4-(1H-tetrazol-5-yl)benzyl)-4-(2,4-dichlorophenylthio)-1H-indole]
41 | A (an affinity (R3/R0)>100%) | < 10 | O=C(Nc1ccc(-c2cnco2)cc1)c1cc2c(Sc3ccc(Cl)cc3)cc(Cl)cc2[nH]1 [I-128, 6-chloro-4-(4-chlorophenylthio)-N-(4-(oxazol-5-yl)phenyl)-1H-indole-2-carboxamide]
